Marks after values point to notes of the source that are not given here.
Columns and labels:
Assay in all cases: Antifungal broth microdilution (Example 13)
[1] = test system: Candida albicans; format: cell-based; conditions: 50% inhibition, 24 hr
[2] = test system: Candida glabrata; format: cell-based; conditions: 50% inhibition
[3] = test system: Candida krusei; format: cell-based; conditions: 50% inhibition
[4] = test system: Candida auris; format: cell-based; conditions: 50% inhibition
[5] = test system: Aspergillus spp.; format: cell-based, A. niger, A. terreus, A. fumigatus, A. flavus; conditions: for MIC0: complete inhibition, comparator, time not stated; for MEC: minimum effective concentration
[6] = C. glabrata ATCC 90030, Susceptible
[7] = C. glabrata ATCC MYA-2950, Susceptible
[8] = C. glabrata MMX 7087, Susceptible
[9] = C. glabrata MMX 7103, CASP-R, MICA-R
[10] = C. glabrata MMX 7111, Susceptible
[11] = C. glabrata MMX 7285, CASP-R, MICA-R
[12] = C. glabrata MMX 7307, CASP-R, MICA-R, FLU-R
[13] = C. glabrata MMX 7549, Susceptible
[14] = C. krusei ATCC 14243, Susceptible
[15] = C. krusei ATCC 96685, Susceptible
[16] = C. krusei MMX 7125, Susceptible
[17] = C. krusei MMX 7128, Susceptible
[18] = C. krusei MMX 7141, Susceptible
[19] = C. krusei MMX 7155, Susceptible
[20] = C. krusei MMX 7563, Susceptible
[21] = C. krusei MMX 9878, MICA-I, VORI-I
[22] = C. auris MMX 9863, FLU-R, VORI-R
[23] = C. auris MMX 9864, FLU-R, VORI-R
[24] = C. auris MMX 9865, FLU-R, VORI-R
[25] = C. auris MMX 9866, FLU-R, VORI-R
[26] = C. auris MMX 9867, FLU-R, VORI-R
[27] = C. auris MMX 9868, FLU-R, VORI-R
[28] = C. auris MMX 9869, FLU-R, VORI-R
[29] = C. auris MMX 9870, FLU-R, VORI-R

Compound: C[C@@H](c1ncncc1F)[C@](O)(Cn1cncn1)c1ccc(F)cc1F [VORI]
- MIC2 ([1]; C. albicans ATCC 90028, Susceptible): ≤0.008 µg/mL
- MIC2 ([1]; C. albicans ATCC 204276, MICA-R): ≤0.008 µg/mL
- MIC2 ([1]; C. albicans ATCC MYA-2732, FLU-R, VORI-I): 0.5 µg/mL
- MIC2 ([1]; C. albicans MMX 7053, Susceptible): ≤0.008 µg/mL
- MIC2 ([1]; C. albicans MMX 7067, FLU-R, VORI-R): >8 µg/mL
- MIC2 ([1]; C. albicans MMX 7403, Susceptible): ≤0.008 µg/mL
- MIC2 ([1]; C. albicans MMX 7424, CASP-R, MICA-R): ≤0.008 µg/mL
- MIC2 ([1]; C. albicans MMX 7430, Susceptible): ≤0.008 µg/mL
- MIC2 ([1]; C. albicans MMX 7437, FLU-I): 0.12 µg/mL
- MIC2 ([1]; C. albicans MMX 7445, FLU-R, VORI-R): >8 µg/mL
- MIC2 [2, 6]: 0.12 µg/mL
- MIC2 [2, 7]: 0.12 µg/mL
- MIC2 [2, 8]: 0.03 µg/mL
- MIC2 ([2]; C. glabrata MMX 7093, FLU-R): 2 µg/mL
- MIC2 ([2]; C. glabrata MMX 7101, FLU-R): 2 µg/mL
- MIC2 [2, 9]: 0.12 µg/mL
- MIC2 [2, 10]: 0.06 µg/mL
- MIC2 [2, 11]: 1 µg/mL
- MIC2 [2, 12]: 4 µg/mL
- MIC2 [2, 13]: 0.06 µg/mL
- MIC2 ([3]; C. krusei ATCC 6258, MICA-I): 0.12 µg/mL
- MIC2 [3, 14]: 0.06 µg/mL
- MIC2 [3, 15]: 0.5 µg/mL
- MIC2 [3, 16]: 0.25 µg/mL
- MIC2 [3, 17]: 0.12 µg/mL
- MIC2 [3, 18]: 0.12 µg/mL
- MIC2 ([3]; C. krusei MMX 7153, MICA-R): 0.25 µg/mL
- MIC2 [3, 19]: 0.25 µg/mL
- MIC2 [3, 20]: 0.25 µg/mL
- MIC2 [3, 21]: 1 µg/mL
- MIC2 ([4]; C. auris MMX 9862, Susceptible): 0.03 µg/mL
- MIC2 [4, 22]: >8 µg/mL
- MIC2 [4, 23]: 7 µg/mL
- MIC2 [4, 24]: 8 µg/mL
- MIC2 [4, 25]: 8 µg/mL
- MIC2 [4, 26]: 8 µg/mL
- MIC2 [4, 27]: >8 µg/mL
- MIC2 [4, 28]: 2 µg/mL
- MIC2 [4, 29]: 4 µg/mL
- MIC2 ([4]; C. auris MMX 9871, Susceptible): 1 µg/mL
- MIC0 ([5]; A. flavus ATCC 22546): 1 µg/mL
- MIC0 ([5]; A. flavus ATCC 204304): 2 µg/mL
- MIC0 ([5]; A. flavus MMX 7935): 0.5 µg/mL
- MIC0 ([5]; A. fumigatus ATCC 204305): 0.5 µg/mL
- MIC0 ([5]; A. fumigatus ATCC MYA-3626): 0.5 µg/mL
- MIC0 ([5]; A. fumigatus MMX 5934): 0.25 µg/mL
- MIC0 ([5]; A. fumigatus MMX 5938): 0.25 µg/mL
- MIC0 ([5]; A. fumigatus MMX 5939): 7 µg/mL
- MIC0 ([5]; A. niger ATCC 29508): 0.5 µg/mL
- MIC0 ([5]; A. terreus MMX 8229): 0.25 µg/mL

Compound: CC[C@H](C)C[C@H](C)CCCCCCCCC(=O)N[C@H]1C[C@@H](O)[C@@H](NCCN)NC(=O)[C@@H]2[C@@H](O)CCN2C(=O)[C@H]([C@H](O)CCN)NC(=O)[C@H]([C@H](O)[C@@H](O)c2ccc(O)cc2)NC(=O)[C@@H]2C[C@@H](O)CN2C(=O)[C@H]([C@@H](C)O)NC1=O [CASP]
- MIC2 [2, 6]: 0.12 µg/mL
- MIC2 [2, 7]: 0.12 µg/mL
- MIC2 [2, 8]: 0.12 µg/mL
- MIC2 ([2]; C. glabrata MMX 7093, FLU-R): 0.12 µg/mL
- MIC2 ([2]; C. glabrata MMX 7101, FLU-R): 0.12 µg/mL
- MIC2 [2, 9]: >8 µg/mL
- MIC2 [2, 10]: 0.12 µg/mL
- MIC2 [2, 11]: 0.5 µg/mL
- MIC2 [2, 12]: >8 µg/mL
- MIC2 [2, 13]: 0.06 µg/mL
- MIC2 ([3]; C. krusei ATCC 6258, MICA-I): 0.25 µg/mL
- MIC2 [3, 14]: 0.012 µg/mL
- MIC2 [3, 15]: 0.12 µg/mL
- MIC2 [3, 16]: 0.25 µg/mL
- MIC2 [3, 17]: 0.25 µg/mL
- MIC2 [3, 18]: 0.25 µg/mL
- MIC2 ([3]; C. krusei MMX 7153, MICA-R): 0.25 µg/mL
- MIC2 [3, 19]: 0.25 µg/mL
- MIC2 [3, 20]: 0.12 µg/mL
- MIC2 [3, 21]: 0.25 µg/mL
- MIC2 ([4]; C. auris MMX 9862, Susceptible): 0.12 µg/mL
- MIC2 [4, 22]: 0.12^b μg/mL
- MIC2 [4, 23]: 0.25^b μg/mL
- MIC2 [4, 24]: 0.25^b μg/mL
- MIC2 [4, 25]: 0.12^b μg/mL
- MIC2 [4, 26]: 0.12 µg/mL
- MIC2 [4, 27]: 0.25 µg/mL
- MIC2 [4, 28]: 0.25 µg/mL
- MIC2 [4, 29]: 0.25 µg/mL
- MIC2 ([4]; C. auris MMX 9871, Susceptible): 0.25^b μg/mL
- MEC ([5]; A. flavus ATCC 22546): 0.06 µg/mL
- MEC ([5]; A. flavus ATCC 204304): 0.06 µg/mL
- MEC ([5]; A. flavus MMX 7935): 0.03 µg/mL
- MEC ([5]; A. fumigatus ATCC 204305): 0.25 µg/mL
- MEC ([5]; A. fumigatus ATCC MYA-3626): 0.06 µg/mL
- MEC ([5]; A. fumigatus MMX 5934): 0.12 µg/mL
- MEC ([5]; A. fumigatus MMX 5938, 48 hr only, insufficient growth for 24 hr read): 0.12^b μg/mL
- MEC ([5]; A. fumigatus MMX 5939): 0.12 µg/mL
- MEC ([5]; A. niger ATCC 29508, 48 hr only, insufficient growth for 24 hr read): 0.06^b μg/mL
- MEC ([5]; A. terreus MMX 8229, 48 hr only, insufficient growth for 24 hr read): 0.12^b μg/mL

Source: US20230124862A1, “BISMUTH THIOL COMPOUNDS AND COMPOSITIONS AND METHODS OF TREATING MICROBIAL CO-INFECTIONS” (Microbion Corporation, priority 2020, published 2023)
